# Residues, ends and D or L forms follow the SMILES beside them. *: point of attachment. Cbz = O=C(OCc1ccccc1)*
# Tests used:
# NSD2 [1] = assay: MG132, MLN4924 and TAK243 inhibitor assay; format: cell-based; details: U2OS cells, 6 h, 10 μM MG132, 1 μM MLN4924 or 1 μM TAK243
# H3K36me2 [2] = details: KMS11 t(4;14) multiple myeloma cells; cited from earlier work
# NSD2-PWWP1 = target: T1, NSD2-PWWP1 (Homo sapiens, UniProt O96028); details: previously shown by the authors; cited from earlier work
# T1 sequence (O96028 222-286 limits assumed): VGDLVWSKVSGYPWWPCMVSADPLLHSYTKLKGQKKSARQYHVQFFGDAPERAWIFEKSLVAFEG
# [3] = target: T2, NanoLuc-NSD2-PWWP1 / HaloTag-Ubiquitin (Homo sapiens, UniProt O96028); assay: NanoBRET ubiquitination assay; format: cell-based; details: compared to UNC6934 or the vehicle
# T2 sequence (O96028 222-286 limits assumed): T1 sequence (O96028 222-286 limits assumed)
# HEK293 = HEK293 proliferation assay; format: cell-based; details: 20 μM, 5 days, confluency
# KMS11 cells [4] = assay: Adhesion assay in KMS11 cells; format: cell-based; details: 25 μM, 14 days, compared to control (UNC8587)
# NSD2 [5] = target: T3, NSD2 (Homo sapiens, UniProt O96028); assay: Global proteomics; format: cell-based; details: U2OS cells, 5 μM, 6 h, 7863 quantifiable proteins
# T3 sequence (O96028 1-627 limits assumed): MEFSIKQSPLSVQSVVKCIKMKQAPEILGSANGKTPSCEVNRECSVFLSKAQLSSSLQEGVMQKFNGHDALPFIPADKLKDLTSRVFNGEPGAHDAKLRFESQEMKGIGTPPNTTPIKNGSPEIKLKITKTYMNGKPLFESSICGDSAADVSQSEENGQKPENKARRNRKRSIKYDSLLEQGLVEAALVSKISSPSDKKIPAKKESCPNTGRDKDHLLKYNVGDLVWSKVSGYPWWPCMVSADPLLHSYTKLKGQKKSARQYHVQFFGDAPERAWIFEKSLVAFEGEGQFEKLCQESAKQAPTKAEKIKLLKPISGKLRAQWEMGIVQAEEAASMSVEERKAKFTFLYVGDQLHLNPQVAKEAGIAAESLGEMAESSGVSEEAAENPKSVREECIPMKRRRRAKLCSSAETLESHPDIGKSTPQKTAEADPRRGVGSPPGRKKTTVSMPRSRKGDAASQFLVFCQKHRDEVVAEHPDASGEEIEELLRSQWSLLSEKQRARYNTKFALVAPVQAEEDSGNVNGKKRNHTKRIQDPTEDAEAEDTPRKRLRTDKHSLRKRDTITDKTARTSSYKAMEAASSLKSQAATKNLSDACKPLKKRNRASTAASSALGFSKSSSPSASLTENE
# KMS11 cells [6] = assay: KMS11 CellTiter-Glo luminescence cell viability assay; format: cell-based; details: up to 30 μM, 8 days
# NSD3 = target: T4, NSD3 (Homo sapiens, UniProt Q9BZ95); assay: Global proteomics and immunoblotting of NSD3 in U2OS cells; format: cell-based; details: 5 μM, 6 h proteomics, confirmed by immunoblotting
# T4 sequence (Q9BZ95 1-1437): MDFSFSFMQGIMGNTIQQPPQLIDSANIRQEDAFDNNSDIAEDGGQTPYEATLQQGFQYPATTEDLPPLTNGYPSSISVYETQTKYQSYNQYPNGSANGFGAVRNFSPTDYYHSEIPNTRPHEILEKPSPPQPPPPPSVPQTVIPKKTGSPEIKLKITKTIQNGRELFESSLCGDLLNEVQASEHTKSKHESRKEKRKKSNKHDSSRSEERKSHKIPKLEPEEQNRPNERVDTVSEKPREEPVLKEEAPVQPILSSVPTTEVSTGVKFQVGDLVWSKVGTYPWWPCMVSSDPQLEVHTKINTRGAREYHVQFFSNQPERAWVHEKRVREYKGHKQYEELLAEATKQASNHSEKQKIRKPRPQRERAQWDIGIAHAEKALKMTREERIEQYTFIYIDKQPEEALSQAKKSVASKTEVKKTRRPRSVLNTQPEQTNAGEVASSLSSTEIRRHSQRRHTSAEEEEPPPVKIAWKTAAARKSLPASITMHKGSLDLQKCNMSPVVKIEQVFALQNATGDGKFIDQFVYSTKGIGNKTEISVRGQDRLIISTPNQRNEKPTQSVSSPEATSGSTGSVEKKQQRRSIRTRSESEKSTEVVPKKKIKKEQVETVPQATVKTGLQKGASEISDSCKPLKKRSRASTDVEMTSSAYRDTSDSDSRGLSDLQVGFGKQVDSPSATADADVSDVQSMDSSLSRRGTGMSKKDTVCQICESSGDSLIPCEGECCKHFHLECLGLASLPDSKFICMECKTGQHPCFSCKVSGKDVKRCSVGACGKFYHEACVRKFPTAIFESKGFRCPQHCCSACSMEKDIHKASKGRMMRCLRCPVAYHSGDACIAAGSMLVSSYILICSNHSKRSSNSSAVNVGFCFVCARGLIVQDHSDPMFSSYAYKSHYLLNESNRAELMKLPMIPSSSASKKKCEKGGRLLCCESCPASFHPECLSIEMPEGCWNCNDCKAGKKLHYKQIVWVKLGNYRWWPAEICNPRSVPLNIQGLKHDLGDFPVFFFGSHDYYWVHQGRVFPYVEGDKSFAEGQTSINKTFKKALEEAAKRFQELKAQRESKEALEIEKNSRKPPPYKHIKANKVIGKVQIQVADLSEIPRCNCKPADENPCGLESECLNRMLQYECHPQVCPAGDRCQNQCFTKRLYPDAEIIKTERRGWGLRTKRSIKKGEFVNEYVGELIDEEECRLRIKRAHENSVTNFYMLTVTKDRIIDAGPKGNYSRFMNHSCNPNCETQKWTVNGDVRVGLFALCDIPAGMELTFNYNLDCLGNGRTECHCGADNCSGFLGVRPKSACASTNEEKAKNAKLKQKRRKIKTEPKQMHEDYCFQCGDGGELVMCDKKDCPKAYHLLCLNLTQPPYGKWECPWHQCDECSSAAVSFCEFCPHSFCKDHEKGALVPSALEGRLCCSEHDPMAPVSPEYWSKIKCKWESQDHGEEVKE
# H3K36me3 = H3K36me3 immunoblot in KMS11 cells; format: cell-based
# NSD2-long [7] = target: T5, NSD2-long (Homo sapiens, UniProt O96028); assay: NSD2 immunoblot in KMS11 cells; format: cell-based; details: read-out: IB: NSD2-long DC50, 1−60 μM, 6 days
# T5 sequence (O96028 1-1365): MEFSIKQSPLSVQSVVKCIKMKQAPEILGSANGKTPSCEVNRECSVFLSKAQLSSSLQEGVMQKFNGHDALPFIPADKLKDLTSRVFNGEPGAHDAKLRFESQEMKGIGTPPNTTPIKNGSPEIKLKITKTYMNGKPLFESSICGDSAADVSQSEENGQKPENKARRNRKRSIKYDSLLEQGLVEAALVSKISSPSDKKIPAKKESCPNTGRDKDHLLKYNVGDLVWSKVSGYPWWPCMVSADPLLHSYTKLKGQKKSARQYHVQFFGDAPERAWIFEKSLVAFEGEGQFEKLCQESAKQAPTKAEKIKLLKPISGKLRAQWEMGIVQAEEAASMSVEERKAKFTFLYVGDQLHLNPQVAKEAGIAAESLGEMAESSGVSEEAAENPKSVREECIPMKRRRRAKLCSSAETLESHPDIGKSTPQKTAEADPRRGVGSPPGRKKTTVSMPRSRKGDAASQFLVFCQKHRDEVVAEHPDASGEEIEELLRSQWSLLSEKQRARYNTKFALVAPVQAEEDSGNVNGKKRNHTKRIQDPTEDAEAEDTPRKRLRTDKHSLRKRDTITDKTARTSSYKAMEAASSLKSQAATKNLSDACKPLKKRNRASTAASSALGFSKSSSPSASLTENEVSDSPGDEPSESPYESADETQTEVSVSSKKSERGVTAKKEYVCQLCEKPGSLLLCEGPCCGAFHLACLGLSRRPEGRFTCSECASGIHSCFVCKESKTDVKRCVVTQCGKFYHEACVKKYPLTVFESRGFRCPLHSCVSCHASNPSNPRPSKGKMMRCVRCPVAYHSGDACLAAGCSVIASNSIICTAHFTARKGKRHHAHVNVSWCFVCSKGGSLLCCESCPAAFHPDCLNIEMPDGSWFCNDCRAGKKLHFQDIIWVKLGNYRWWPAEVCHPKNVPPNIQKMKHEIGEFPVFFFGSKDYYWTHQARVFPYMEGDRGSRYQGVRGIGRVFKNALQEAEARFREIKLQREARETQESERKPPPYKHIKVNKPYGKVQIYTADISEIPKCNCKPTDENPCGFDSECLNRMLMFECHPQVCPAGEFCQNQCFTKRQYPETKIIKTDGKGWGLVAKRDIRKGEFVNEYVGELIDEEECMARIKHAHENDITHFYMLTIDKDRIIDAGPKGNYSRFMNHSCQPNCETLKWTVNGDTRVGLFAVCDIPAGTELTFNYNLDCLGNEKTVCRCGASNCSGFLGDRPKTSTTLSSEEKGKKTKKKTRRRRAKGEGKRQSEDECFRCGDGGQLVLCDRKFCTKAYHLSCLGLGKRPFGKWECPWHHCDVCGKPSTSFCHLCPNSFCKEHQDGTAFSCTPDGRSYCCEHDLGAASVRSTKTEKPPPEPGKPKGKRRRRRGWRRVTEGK
# MDA-MB-231 = MDA-MB-231 proliferation assay; format: cell-based; details: 20 μM, 5 days, confluency
# NSD2 and H3K36me2 [8] = assay: NSD2 and H3K36me2 immunoblot in MM1S cells; format: cell-based; details: NSD2 E1099K, 10 μM, 6 days
# NSD2 and H3K36me2 [9] = assay: NSD2 and H3K36me2 immunoblot in RS411 cells; format: cell-based; details: RS411, NSD2 E1099K, 10 μM, 6 days
# MM1S cells = assay: MM1S dose-response treatment and proliferation assay; format: cell-based; details: increasing concentrations, 8 days, trypan blue cell count
# NSD2 [10] = target: T3, NSD2; assay: In-cell western; format: cell-based; details: U2OS cells, ICW
# U2OS = U2OS proliferation assay; format: cell-based; details: 20 μM, 5 days, confluency
# H3K36me2 [11] = assay: H3K36me2 immunoblot in KMS11 cells; format: cell-based
# NSD1 = NSD1 (Homo sapiens, UniProt Q96L73); assay: Global proteomics and immunoblotting of NSD1 in U2OS cells; format: cell-based; details: 5 μM, 6 h proteomics, confirmed by immunoblotting
# Chain of NSD1 (Q96L73 whole entry): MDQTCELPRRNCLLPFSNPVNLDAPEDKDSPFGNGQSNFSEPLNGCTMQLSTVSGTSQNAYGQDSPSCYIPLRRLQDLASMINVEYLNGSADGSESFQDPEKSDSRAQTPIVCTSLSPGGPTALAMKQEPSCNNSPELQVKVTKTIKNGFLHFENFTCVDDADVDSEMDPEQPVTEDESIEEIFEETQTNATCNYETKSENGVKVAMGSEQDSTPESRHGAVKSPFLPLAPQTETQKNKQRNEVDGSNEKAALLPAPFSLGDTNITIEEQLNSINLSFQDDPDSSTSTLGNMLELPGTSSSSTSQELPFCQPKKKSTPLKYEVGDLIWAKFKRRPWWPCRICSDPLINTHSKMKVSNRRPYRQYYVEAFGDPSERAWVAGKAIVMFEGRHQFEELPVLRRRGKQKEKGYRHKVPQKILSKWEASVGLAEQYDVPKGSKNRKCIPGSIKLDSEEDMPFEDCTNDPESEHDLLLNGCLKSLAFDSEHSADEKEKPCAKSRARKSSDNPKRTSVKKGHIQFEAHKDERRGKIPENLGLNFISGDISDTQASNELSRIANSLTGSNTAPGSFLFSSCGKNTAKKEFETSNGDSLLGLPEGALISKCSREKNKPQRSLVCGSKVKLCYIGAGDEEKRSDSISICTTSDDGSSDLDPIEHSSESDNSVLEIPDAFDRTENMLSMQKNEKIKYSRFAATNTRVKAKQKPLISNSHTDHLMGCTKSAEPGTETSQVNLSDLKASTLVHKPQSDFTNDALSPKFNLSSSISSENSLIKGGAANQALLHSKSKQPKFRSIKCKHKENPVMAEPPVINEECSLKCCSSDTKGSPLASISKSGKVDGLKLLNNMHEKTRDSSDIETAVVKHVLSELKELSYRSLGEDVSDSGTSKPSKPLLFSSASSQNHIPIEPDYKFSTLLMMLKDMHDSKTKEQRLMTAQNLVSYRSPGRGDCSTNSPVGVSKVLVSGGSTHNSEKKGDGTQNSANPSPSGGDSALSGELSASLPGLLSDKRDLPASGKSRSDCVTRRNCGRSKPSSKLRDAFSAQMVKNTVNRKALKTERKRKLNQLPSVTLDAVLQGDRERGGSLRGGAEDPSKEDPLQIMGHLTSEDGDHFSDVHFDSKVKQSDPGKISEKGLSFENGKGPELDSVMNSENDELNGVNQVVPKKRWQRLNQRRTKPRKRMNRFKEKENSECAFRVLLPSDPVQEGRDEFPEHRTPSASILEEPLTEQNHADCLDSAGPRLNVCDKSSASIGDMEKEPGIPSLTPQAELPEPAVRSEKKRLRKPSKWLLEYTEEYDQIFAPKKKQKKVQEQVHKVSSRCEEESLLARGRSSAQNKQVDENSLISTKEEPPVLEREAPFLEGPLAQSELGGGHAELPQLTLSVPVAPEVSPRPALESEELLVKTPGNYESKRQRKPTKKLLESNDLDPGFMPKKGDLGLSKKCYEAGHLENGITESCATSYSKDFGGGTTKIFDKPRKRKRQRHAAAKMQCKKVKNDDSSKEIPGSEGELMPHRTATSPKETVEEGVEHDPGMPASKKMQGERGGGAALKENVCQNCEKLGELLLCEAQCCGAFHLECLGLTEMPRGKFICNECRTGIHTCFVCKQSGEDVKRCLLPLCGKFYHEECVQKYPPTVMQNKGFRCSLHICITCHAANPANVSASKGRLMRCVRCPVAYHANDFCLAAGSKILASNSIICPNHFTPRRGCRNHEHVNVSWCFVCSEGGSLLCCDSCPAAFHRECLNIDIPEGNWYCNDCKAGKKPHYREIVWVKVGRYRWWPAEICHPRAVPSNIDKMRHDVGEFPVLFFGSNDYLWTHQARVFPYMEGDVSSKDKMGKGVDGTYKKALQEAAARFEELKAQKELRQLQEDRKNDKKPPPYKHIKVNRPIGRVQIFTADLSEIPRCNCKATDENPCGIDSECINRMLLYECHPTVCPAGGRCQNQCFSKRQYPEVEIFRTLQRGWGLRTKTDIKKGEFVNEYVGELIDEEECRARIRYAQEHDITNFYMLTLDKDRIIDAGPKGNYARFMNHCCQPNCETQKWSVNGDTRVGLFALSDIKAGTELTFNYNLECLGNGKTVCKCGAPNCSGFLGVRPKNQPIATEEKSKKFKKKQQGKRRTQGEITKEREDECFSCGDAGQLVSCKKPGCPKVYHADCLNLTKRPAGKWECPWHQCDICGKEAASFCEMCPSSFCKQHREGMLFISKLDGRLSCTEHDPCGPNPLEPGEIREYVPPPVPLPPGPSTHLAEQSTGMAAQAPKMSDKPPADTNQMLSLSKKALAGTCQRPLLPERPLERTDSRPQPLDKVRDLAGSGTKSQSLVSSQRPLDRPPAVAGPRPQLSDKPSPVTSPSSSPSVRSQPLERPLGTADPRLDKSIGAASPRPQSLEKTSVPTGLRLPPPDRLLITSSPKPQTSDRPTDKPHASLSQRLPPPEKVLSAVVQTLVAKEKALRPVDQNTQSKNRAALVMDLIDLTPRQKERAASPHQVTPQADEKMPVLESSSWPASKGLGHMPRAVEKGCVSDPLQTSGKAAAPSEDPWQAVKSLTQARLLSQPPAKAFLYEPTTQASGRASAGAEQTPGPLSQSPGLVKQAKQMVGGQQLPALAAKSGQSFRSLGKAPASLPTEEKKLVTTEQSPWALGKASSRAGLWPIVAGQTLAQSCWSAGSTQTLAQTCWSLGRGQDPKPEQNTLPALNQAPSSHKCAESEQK
# NSD family members = details: immunoblot
# H3K36me1 = H3K36me1 immunoblot in KMS11 cells; format: cell-based
# NSD2-long [12] = target: T5, NSD2-long; assay: Western blot of NSD2 in U2OS cells; format: cell-based; details: 10 μM, without replenishing the compound
structure (smiles),measurement,setting,value
CC(C)C[C@@H](C=O)NC(=O)[C@H](CC(C)C)NC(=O)[C@H](CC(C)C)NC(=O)OCc1ccccc1 [MG132] (Cbz-Leu-Leu-Leu-aldehyde),effect of inhibitor on UNC8153-mediated NSD2 degradation,NSD2 [1],completely ablates NSD2 degradation
NS(=O)(=O)OC[C@@H]1C[C@@H](n2ccc3c(N[C@H]4CCc5ccccc54)ncnc32)C[C@@H]1O [MLN4924],effect of inhibitor on UNC8153-mediated NSD2 degradation,NSD2 [1],prevented NSD2 degradation
NS(=O)(=O)OC[C@H]1C[C@@H](Nc2ccnc3cc(-c4cccc(SC(F)(F)F)c4)nn23)[C@H](O)[C@@H]1O [TAK243],effect of inhibitor on UNC8153-mediated NSD2 degradation,NSD2 [1],prevented NSD2 degradation
O=C1COc2cc(C(=O)N(Cc3ccc(C(=O)Nc4ccncn4)cc3)C3CC3)ccc2N1 [UNC6934],global H3K36me2 levels in KMS11 cells,H3K36me2 [2],remain unaltered
O=C(CCCC[C@@H]1SC[C@@H]2NC(=O)N[C@@H]21)NCCOCCOCCOCCOCCOCCOCCOCCOCCOCCOCCOCCNC(=O)c1ccc(NC(=O)c2ccc(CN(C(=O)c3ccc4c(c3)OCC(=O)N4)C3CC3)cc2)cc1 [UNC7096],binding to NSD2 (in words),NSD2-PWWP1,maintains binding to NSD2
NCCCCCCNC(=O)c1ccc(NC(=O)c2ccc(CN(C(=O)c3ccc4c(c3)OCC(=O)N4)C3CC3)cc2)cc1 [UNC8153],BRET signal between HaloTag-ubiquitin and NanoLuc-NSD2-PWWP1,[3],increased BRET signals
same,proliferative potential of HEK293 cells,HEK293,no significant changes in proliferative potential
same,cell adhesion to Matrigel,KMS11 cells [4],Significant antiadhesive effects
same,selectivity of NSD2 degradation within the measurable proteome,NSD2 [5],NSD2 was selectively degraded
same,proliferation / cell viability of KMS11 cells,KMS11 cells [6],did not result in a significant change in proliferation
same,degradation of NSD3,NSD3,not degraded
same,H3K36me3 level,H3K36me3,decreased slightly
same,DC50,NSD2-long [7],3.41 µM
same,proliferative potential of MDA-MB-231 cells,MDA-MB-231,no significant changes in proliferative potential
same,NSD2 and H3K36me2 modulation in MM1S cells,NSD2 and H3K36me2 [8],similarly responsive
same,NSD2 and H3K36me2 modulation in RS411 cells,NSD2 and H3K36me2 [9],similarly responsive
same,proliferation of MM1S cells,MM1S cells,mild antiproliferative effect
same,NSD2 degradation 30 min after compound treatment,NSD2 [10]; 3 and 10 μM,~ 40%
same,hook effect in NSD2 reduction,NSD2 [10]; confirmed by immunoblotting,a hook effect occurs at high concentrations
same,proliferative potential of U2OS cells,U2OS,no significant changes in proliferative potential
same,"H3K36me2 levels, time course","H3K36me2 [11]; 20 μM, 2−8 days, loss after 6 days, control 8 days",Significant loss of the H3K36me2 mark
same,"H3K36me2 levels, dose response","H3K36me2 [11]; 1−60 μM, 6 days",dose-dependent reduction of the H3K36me2 mark
same,degradation of NSD1,NSD1,not degraded
same,selectivity for NSD2 over other NSD family members in MM1S cells,NSD family members,selectively degrades NSD2 over other NSD family members
same,H3K36me1 level,H3K36me1,increase in H3K36 monomethylation
same,extent of degradation of NSD2-long 96 h after a single treatment,NSD2-long [12],above 60%
